Measurements taken from PubChem BioAssay AID651927 (Vanderbilt Specialized Chemistry Center, 2012).

Molecular target: Muscarinic acetylcholine receptor M5 (Homo sapiens) (UniProt P08912)
Test: human M5 positive allosteric modulators, CHO cells (AID 651927)
Conditions: CHO-K1 hM5, Fluo-4 calcium flux, ACh EC20 potentiation

Sequence of Muscarinic acetylcholine receptor M5 (Homo sapiens) (P08912 whole entry, looked up): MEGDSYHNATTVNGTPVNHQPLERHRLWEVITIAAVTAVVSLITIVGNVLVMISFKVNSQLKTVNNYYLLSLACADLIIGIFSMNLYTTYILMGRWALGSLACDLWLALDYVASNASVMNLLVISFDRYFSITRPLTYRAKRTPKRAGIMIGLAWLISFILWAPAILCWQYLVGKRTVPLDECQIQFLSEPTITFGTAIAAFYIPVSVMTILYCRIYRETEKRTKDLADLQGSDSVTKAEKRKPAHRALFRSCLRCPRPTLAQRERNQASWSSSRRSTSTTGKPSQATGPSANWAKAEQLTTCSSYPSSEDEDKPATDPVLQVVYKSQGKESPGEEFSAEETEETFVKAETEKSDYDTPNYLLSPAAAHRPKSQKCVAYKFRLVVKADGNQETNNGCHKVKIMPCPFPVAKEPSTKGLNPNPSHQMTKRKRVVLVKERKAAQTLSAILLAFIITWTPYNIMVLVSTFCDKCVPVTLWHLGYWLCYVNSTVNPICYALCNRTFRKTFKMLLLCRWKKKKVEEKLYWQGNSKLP

SMILES: O=C1C(=O)N(CCOc2ccccc2)c2ccc(OC(F)(F)F)cc21
- EC50: 589 nM
